Experimental data from patent publication US11053243B2 (Merck Sharp & Dohme Corp., priority 2009, dated 2021).

System: HCV genotype 1b replicon
Test: HCV replicon assay, genotype 1b
Assay type: cell-based, hepatitis C virus
Conditions: genotype 1b replicon cells, 24 to 72 hours incubation, luciferase activity
Protocol: The HCV replicons and NS5A inhibitory activity of the present compounds may be tested using assays known in the art. HCV inhibitors, such as those described in the Examples herein have activities in genotype 1b, 2a and 1a replicon assays of from about 1 pM to about 1 μM. The assay is performed by incubating a replicon harboring cell-line in the presence of inhibitor for a set period of time and measuring the effect of the inhibitor on HCV replicon replication either directly by quantifying replicon RNA level, or indirectly by measuring enzymatic activity of a co-encoded reporter enzyme such as luciferase or β-lactamase. By performing a series of such measurements at different inhibitor concentrations, the effective inhibitory concentration of the inhibitor (EC50 or EC90) is determined. See Jan M. Vrolijk et al., A replicons-based bioassay for the measurement of interferons in patients with chronic hepatitis C, 110 J. VIROLOGICAL METHODS 201 (2003). Such assays may also be run in an automated format for high through-put screening. See Paul Zuck et al., A cell-based β-lactamase reporter gene assay for the identification of inhibitors of hepatitis C virus replication, 334 ANALYTICAL BIOCHEMISTRY 344 (2004).
Measurement of inhibition by compounds was performed using the HCV replicon system. Several different replicons encoding different HCV genotypes or mutations were used. In addition, potency measurements were made using different formats of the replicon assay, including different ways of measurements and different plating formats. See Jan M. Vrolijk et al., A replicons-based bioassay for the measurement of interferons in patients with chronic hepatitis C, 110 J. VIROLOGICAL METHODS 201 (2003); Steven S. Carroll et al., Inhibition of Hepatitis C Virus RNA Replication by 2′-Modified Nucleoside Analogs, 278(14) J. BIOLOGICAL CHEMISTRY 11979 (2003). However, the underlying principles are common to all of these determinations, and are outlined below.
Stable neomycin phosphotransferase encoding replicon-harboring cell lines were used, so all cell lines were maintained under G418 selection prior to the assay. In some cases, the cell lines encoded a luciferase:Neor fusion and could be assayed either directly by determination of RNA copy number, or indirectly through measurement of the luciferase activity.
To initiate an assay, replicon cells were plated in the presence of a dilution series of test compound in the absence of G418. Typically, the assays were performed in a 96-well plate format for manual operation, or a 384-well plate in an automated assay. Replicon cells and compound were incubated for 24 to 72 hours. At the end of the assay, cells are washed free of media and compound and then lysed. Luciferase activity was measured using a conventional luciferase assay. EC50 determinations were calculated as a percent of a DMSO control by fitting the data to a four parameter fit function.
The activity table below provides representative data illustrating observed activity against genotype 1b.

| SMILES | EC50 (Hepatitis C virus) [pM] | EC50 [pM] |
| --- | --- | --- |
| O=C(Nc1ccc(-c2cc3nc(NC(=O)[C@@H]4CCCN4C(=O)Cc4ccccc4)ccc3[nH]2)cc1)[C@@H]1CCCN1C(=O)Cc1ccccc1 [Example 2, (2S)-1-(phenylacetyl)-N-{2-[4-({[(2S)-1-(phenylacetyl)pyrrolidin-2-yl]carbonyl}amino)phenyl]-1H-pyrrolo[3,2-b]pyridin-5-yl}pyrrolidine-2-carboxamide] | 9000 | – |
| O=C(Nc1ccc(-c2[nH]c3ncc(NC(=O)[C@@H]4CCCN4C(=O)Cc4ccccc4)cc3c2Cl)cc1)[C@@H]1CCCN1C(=O)Cc1ccccc1 [Example 6, (2S)—N-{3-chloro-2-[4-({[(2S)-1-(phenylacetyl)pyrrolidin-2-yl]carbonyl}amino)phenyl]-1H-pyrrolo[2,3-b]pyridin-5-yl}-1-(phenylacetyl)pyrrolidine-2-carboxamide] | 200000 | – |
| CC(C)(C)OC(=O)N[C@H](C(=O)N1CCC[C@H]1C(=O)Nc1ccc(-c2nc3cc(NC(=O)[C@@H]4CCCN4C(=O)[C@@H](NC(=O)OC(C)(C)C)c4ccccc4)ccc3[nH]2)cc1)c1ccccc1 [Example 14, tert-butyl {(1S)-2-[(2S)-2-({4-[5-({[(2S)-1-{(2S)-2-[(tert-butoxycarbonyl)amino]-2-phenylacetyl}pyrrolidin-2-yl]carbonyl}amino)-1H-benzimidazol-2-yl]phenyl}carbamoyl)pyrrolidin-1-yl]-2-oxo-1-phenylethyl}carbamate] | 10000 | – |
| CC(C)(C)OC(=O)N[C@@H](C(=O)N1CCC[C@H]1C(=O)Nc1ccc(-c2nc3cc(NC(=O)[C@@H]4CCCN4C(=O)[C@H](NC(=O)OC(C)(C)C)c4ccccc4)ccc3[nH]2)cc1)c1ccccc1 [Example 15, tert-butyl {(1R)-2-[(2S)-2-({4-[5-({[(2S)-1-{(2R)-2-[(tert-butoxycarbonyl)amino]-2-phenylacetyl}pyrrolidin-2-yl]carbonyl}amino)-1H-benzimidazol-2-yl]phenyl}carbamoyl)pyrrolidin-1-yl]-2-oxo-1-phenylethyl}carbamate] | 45 | – |
| CC(=O)Nc1ccc(-c2cc3cc(NC(=O)[C@@H]4CCCN4C(=O)[C@H](NC(=O)OC(C)(C)C)c4ccccc4)ccc3o2)cc1 [Example 19, N-{2-[4-(acetylamino)phenyl]-1-benzofuran-5-yl}-1-{(2R)-2-[(tert-butoxycarbonyl)amino]-2-phenylacetyl}-L-prolinamide] | 25000 | – |
| CCN(CC)[C@@H](C(=O)N1CCC[C@H]1C(=O)Nc1ccc(-c2cc3cc(NC(=O)[C@@H]4CCCN4C(=O)[C@@H](c4ccccc4)N(CC)CC)ccc3o2)cc1)c1ccccc1 [Example 26, (2S)-1-[(2R)-2-(diethylamino)-2-phenylacetyl]-N-(4-{5-[({(2S)-1-[(2R)-2-(diethylamino)-2-phenylacetyl]pyrrolidin-2-yl}carbonyl)amino]-1-benzofuran-2-yl}phenyl)pyrrolidine-2-carboxamide] | 63 | – |
| CCN(CC)[C@@H](C(=O)N1CCC[C@H]1C(=O)Nc1ccc2oc(-c3ccc(NC(C)=O)cc3)cc2c1)c1ccccc1 [Example 30] | 26000 | – |
| O=C(Nc1ccc2[nH]c(-c3cc4cc(NC(=O)[C@@H]5CCCN5C(=O)Cc5ccccc5)ccc4[nH]3)cc2c1)[C@@H]1CCCN1C(=O)Cc1ccccc1 [Example 39, (2S,2′S)—N,N′,1H,1′H-2,2′-biindole-5,5′-diylbis[1-(phenylacetyl)pyrrolidine-2-carboxamide]] | 240 | – |
| CC(C)(C)OC(=O)N[C@@H](C(=O)N1CCCC1C(=O)Nc1ccc2[nH]c(-c3cc4cc(NC(=O)[C@@H]5CCCN5C(=O)[C@H](NC(=O)OC(C)(C)C)c5ccccc5)ccc4[nH]3)cc2c1)c1ccccc1 (some centres unmarked) [Example 40] | 26 | – |
| CC(C)(C)OC(=O)N[C@@H](C(=O)N1CCC[C@H]1C(=O)Nc1ccc2[nH]c(-c3ccc(NC(=O)[C@@H]4CCCN4C(=O)Cc4ccccc4)cc3)cc2c1)c1ccccc1 [Example 41] | 50 | – |
| O=C(Nc1cnc(-c2cc3cc(NC(=O)[C@@H]4CCCN4C(=O)Cc4ccccc4)ccc3[nH]2)nc1)[C@@H]1CCCN1C(=O)Cc1ccccc1 [Example 42] | 14000 | – |
| O=C(Nc1ccc(-c2cc3cc(NC(=O)[C@@H]4CCCN4C(=O)[C@@H](c4ccccc4)N4CCCC4)ccc3[nH]2)cc1)[C@@H]1CCCN1C(=O)[C@@H](c1ccccc1)N1CCCC1 [Example 45, (2S)-1-[(2R)-2-phenyl-2-(pyrrolidin-1-yl)acetyl]-N-(4-{5-[({(2S)-1-[(2R)-2-phenyl-2-(pyrrolidin-1-yl)acetyl]pyrrolidin-2-yl}carbonyl)amino]-1H-indol-2-yl}phenyl) pyrrolidine-2-carboxamide] | 20 | – |
| O=C(Nc1ccc(-c2cc3cc(NC(=O)[C@@H]4CCCN4C(=O)C(Cc4ccccc4)c4ccccc4)ccc3[nH]2)cc1)[C@@H]1CCCN1C(=O)C(Cc1ccccc1)c1ccccc1 (some centres unmarked) [Example 49] | 72 | – |
| CC(=O)Nc1ccc(-c2cc3cc(NC(=O)[C@@H]4CCCN4C(=O)[C@@H](c4ccccc4)N4CCCC4)ccc3[nH]2)cc1 [Example 58, N-{2-[4-(acetylamino)phenyl]-1H-indol-5-yl}-1[(2R)-2-phenyl-2-(pyrrolidin-1-yl)acetyl]-L-prolinamide] | 970 | – |
| O=C(Nc1ccc(-c2cc3cc(NC(=O)[C@@H]4CCCN4C(=O)[C@@H](c4ccccc4)N4CCCCC4)ccc3[nH]2)cc1)[C@@H]1CCCN1C(=O)[C@@H](c1ccccc1)N1CCCCC1 [Example 60, (2S)-1-[(2R)-2phenyl-2-(piperidin-1-yl)acetyl]-N-(4-{5-[({(2S)-1-[(2R)-2-phenyl-2-(piperidin-1-yl)acetyl]pyrrolidin-2-yl}carbonyl)amino]-1H-indol-2-yl}phenyl)pyrrolidine-2-carboxamide] | 130 | – |
| CCN(CC)[C@@H](C(=O)N1CCC[C@H]1C(=O)Nc1ccc(-c2cc3cc(NC(=O)[C@@H]4CCCN4C(=O)[C@@H](c4ccccc4)N(CC)CC)ccc3[nH]2)cc1)c1ccccc1 [Example 62, (2S)-1-[(2R)-2-(diethylamino)-2-phenylacetyl]-N-(4-{5-[({(2S)-1-[(2R)-2-(diethylamino)-2-phenylacetyl]pyrrolidin-2-yl}carbonyl)amino]-1H-indol-2-yl}phenyl)pyrrolidine-2-carboxamide] | 67 | – |
| CN(C)[C@@H](C(=O)N1CCC[C@H]1C(=O)Nc1ccc2[nH]c(-c3ccc(NC(=O)[C@@H]4CCCN4C(=O)[C@H]4CCCO4)cc3)cc2c1)c1ccccc1 [Example 72] | – | 170 |
| CN(C)[C@@H](C(=O)N1CCC[C@H]1C(=O)Nc1ccc2c(c1)CCc1c-2[nH]c2ccc(NC(=O)[C@@H]3CCCN3C(=O)[C@@H](c3ccccc3)N(C)C)cc12)c1ccccc1 [Example 94, (2S,2′S)-N,N′-6,11-dihydro-5H-benzo[a]carbazole-3,8-diylbis{1-[(2R)-2-(dimethylamino)-2-phenylacetyl]pyrrolidine-2-carboxamide}] | 6 | – |
| CN(C)[C@@H](C(=O)N1CCC[C@H]1C(=O)Nc1ccc2c(c1)CCCc1c-2[nH]c2ccc(NC(=O)[C@@H]3CCCN3C(=O)[C@@H](c3ccccc3)N(C)C)cc12)c1ccccc1 [Example 95, (2S,2′S)-N,N′-5,6,7,12-tetrahydrobenzo[6,7]cyclohepta[1,2-b]indole-3,9-diylbis{1-[(2R)-2-(dimethylamino)-2-phenylacetyl]pyrrolidine-2-carboxamide}] | 10 | – |
| CC(C)(C)CC(=O)N[C@H](C(=O)N1CCC[C@H]1C(=O)Nc1ccc2c(c1)CCc1c-2[nH]c2ccccc12)c1ccccc1 [Example 96, N-(6,11-dihydro-5H-benzo[a]carbazol-3-yl)-1-{(2S)-2-[(3,3-dimethylbutanoyl)amino]-2-phenylacetyl}-L-prolinamide] | 15 | – |
